In this assay the test system is murine B cells. The assay is described as follows: Murine B cell activation: CD86 expression on CD19 positive B cells after anti-IgM stimulation. The class given is cell-based. To be noted: Balb/c mouse splenocytes, anti-IgM 30 μg/ml, 24 hours, read-out: mCD86/ IC50 CD86. The method, then:
PI3Kδ has been recognized to modulate B cell function when cells are stimulated through the B cell receptor (BCR) (Okkenhaug et al. Science 297:1031 (2002). For assessing the inhibitory property of compounds on B cell activation, the upregulation of activation markers CD86 and CD69 on murine B cells derived from mouse spleen […] is measured after stimulation with anti-IgM. CD69 is a well known activation marker for B and T cells (Sancho et al. Trends Immunol. 26:136 (2005). CD86 (also known as B7-2) is primarily expressed on antigen-presenting cells, including B cells. Resting B cells express CD86 at low levels, but upregulate it following stimulation of e.g. the BCR or IL-4 receptor. CD86 on a B cell interacts with CD28 on T cells. This interaction is required for optimal T cell activation and for the generation of an optimal IgG1 response (Carreno et al. Annu Rev Immunol. 20:29 (2002)).
Spleens from Balb/c mice were collected, splenocytes were isolated and washed twice with RPMI containing 10% foetal bovine serum (FBS), 10 mM HEPES, 100 Units/ml penicilline/streptomycine. RPMI supplemented in this way is subsequently referred to as medium. The cells were adjusted to 2.5×10^6 cells/ml in medium and 200 μl cell suspension ([…]) were added to the appropriate wells of 96 well plates.
Then the cells were stimulated by adding 50 μl anti-IgM mAb in medium (final concentration: 30 μg/ml). After incubation for 24 hours at 37° C., the cells were stained with the following antibody cocktails: anti-mouse CD86-FITC, anti-mouse CD69-PerCP-Cy5.5, anti-mouse CD19-PerCP for the assessment of B cells, and anti-mouse CD3-FITC, anti-mouse CD69-PE for the assessment of T cells (2 μl of each antibody/well). After one hour at room temperature (RT) in the dark the cells were transferred to 96 Deepwell plates. The cells were washed once with 1 ml PBS containing 2% FBS and after re-suspension in 200 μl the samples were analyzed on a FACS Calibur flow cytometer. Lymphocytes were gated in the FSC/SSC dot plot according to size and granularity and further analyzed for expression of CD19, CD3 and activation markers (CD86, CD69). Data were calculated from dot blots as percentage of cells positively stained for activation markers within the CD19+ or CD3+ population using BD CellQest Software.
For assessing the inhibitory property of compounds, compounds were first dissolved and diluted in DMSO followed by a 1:50 dilution in medium. Splenocytes from Balb/c mice were isolated, re-suspended and transfered to 96 well plates as described above (200 μl/well). The diluted compounds or solvent were added to the plates (25 μl) and incubated at 37° C. for 1 hour. Then the cultures were stimulated with 25 μl anti-IgM mAb/well (final concentration 30 μg/ml) for 24 hours at 37° C. and stained with anti-mouse CD86-FITC and anti-mouse CD19-PerCP (2 μl of each antibody/well). CD86 expression on CD19 positive B cells was quantified by flow cytometry as described above.

pIC50: −log10 of the molar value.

For `COc1ccc(-c2ccc3ncnc(-c4cccc(C(=O)N5CCN(C(C)=O)CC5)c4)c3c2)cc1S(=O)(=O)N1CCCC1` [Example 7], the pIC50 is 7.70.

As to `COc1ccc(-c2ccc3ncnc(-c4ccc(C)c(C(=O)N5CC6CC5CN6C)c4)c3c2)cn1` (stereo not shown) [Example 117], the pIC50 is 7.00. As for `CNc1ncc(-c2ccc3ncnc(-c4cncc(C(=O)N5CCN(C)CC5)c4)c3c2)cc1C` [Example 75, {5-[6-(5-Methyl-6-methylamino-pyridin-3-yl)-quinazolin-4-yl]-pyridin-3-yl}-(4-methyl-piperazin-1-yl)-methanone], the pIC50 was 7.27. Take `COc1ccc(-c2ccc3ncnc(-c4cccc(C(=O)N5C[C@@H]6C[C@H]5CN6C)c4)c3c2)cn1` [Example 91, {3-[6-(6-Methoxy-pyridin-3-yl)-quinazolin-4-yl]-phenyl}-((1S,4S)-5-methyl-2,5-diaza-bicyclo[2.2.1]hept-2-yl)-methanone]: the pIC50 was 7.36. Next, `COc1ccc(-c2ccc3ncnc(-c4cc(F)cc(C(=O)N5CCN(C(C)=O)CC5)c4)c3c2)cn1` [Example 110, 1-(4-{3-Fluoro-5-[6-(6-methoxy-pyridin-3-yl)-quinazolin-4-yl]-benzoyl}-piperazin-1-yl)-ethanone]: 6.81; `COc1ncc(-c2ccc3ncnc(-c4cccc(C(=O)N5CCN(C)CC5)c4)c3c2)cn1` [Example 2]: 7.16. For `COc1ccc(-c2ccc3ncnc(-c4cncc(C(=O)N5CCNC(C)(C)C5)c4)c3c2)cc1C(F)(F)F` [Example 81, (3,3-Dimethyl-piperazin-1-yl)-{5-[6-(4-methoxy-3-trifluoromethyl-phenyl)-quinazolin-4-yl]-pyridin-3-yl}-methanone], the pIC50 was 7.10.

Source of the values: patent publication US20140249139A1, “Quinazoline Derivatives” (NOVARTIS AG, priority 2011, published 2014).
